From US20230241232A1, “Size-Dependent Brain and Lymphatic Distribution of Macromolecular Drug Delivery Platform” (The United States of America, As Represented by the …, priority 2020, published 2023)

Biological target: T1, scavenger receptor A (Mus musculus, UniProt P30204)
T1 construct: endogenous in cells; host or cells: Raw 264.7 macrophages
T1 sequence (P30204 1-458): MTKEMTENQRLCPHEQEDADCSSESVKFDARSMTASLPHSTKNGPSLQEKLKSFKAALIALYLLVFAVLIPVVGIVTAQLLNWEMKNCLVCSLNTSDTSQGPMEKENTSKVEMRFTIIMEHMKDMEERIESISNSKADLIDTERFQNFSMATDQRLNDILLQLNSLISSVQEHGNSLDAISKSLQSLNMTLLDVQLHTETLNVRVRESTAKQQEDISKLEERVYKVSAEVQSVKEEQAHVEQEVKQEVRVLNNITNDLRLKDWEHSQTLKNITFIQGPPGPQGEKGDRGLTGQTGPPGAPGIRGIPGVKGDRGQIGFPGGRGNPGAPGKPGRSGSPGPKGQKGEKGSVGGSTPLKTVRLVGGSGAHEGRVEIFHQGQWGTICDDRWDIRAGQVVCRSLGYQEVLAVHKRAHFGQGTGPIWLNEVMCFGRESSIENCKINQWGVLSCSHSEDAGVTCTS
Assay: Competitive inhibition of polymer-488 cell uptake by poly I / poly C in Raw 264.7 macrophages
Format: cell-based
Conditions: for inhibition of polymer-488 fluorescence (% control): Raw 264.7 cells, various inhibitor concentrations, polymer-488 constant, 37° C. 3 hours, FIG. 4; for inhibition of scavenger receptor interaction of polymer-488 (fluorescence): Raw 264.7 macrophages, various concentrations of polymer-488, with or without inhibitor, FIG. 3
Protocol: The fluorescently labelled poly(L-lysine succinylated) was also tested for cell uptake in a macrophage cell line Raw 264.7 in the presence of competitive inhibitors and relevant controls. […] At higher concentrations of polymer-488, fluorescence is seen due to competing off the poly I.
In a follow up study, cells were treated with various concentrations of either poly I or poly C while polymer-488 concentration remained constant. In this study, Raw 264.7 cells were incubated overnight at 400,000 cells/mL. The cells were then treated with various concentrations of polymer-488 and either 200 μg/mL poly I, 200 μg/mL poly C, or no inhibitor. The cells were incubated at 37° C. for 3 hours, washed 3 times with media, and fluorescence measured.

| inhibition of polymer-488 fluorescence (% control) | Substance | inhibition of scavenger receptor interaction of polymer-488 (fluorescence) |
| --- | --- | --- |
| virtually no inhibition of fluorescence | polycytidylic acid [poly C] | not with poly C |
| dose-dependent inhibition | polyinosinic acid [poly I] | inhibition of scavenger receptor interaction |
